Test results: US20100151015A1 (priority 2008, published 2010)
One block for each molecule: values may come before it.

Experiments:
[1] = test system: psychosis associated with PD; conditions: initial open-label studies; cited from earlier work
[2] = Solubility of Melperone HCl in various media; type: physicochemical
[3] = cited from earlier work
[4] = human, in vivo; cited from earlier work
[5] = test system: psychosis in patients with PD; conditions: cited from earlier work
[6] = cited from earlier work; remark: listed apart in the source

Compound: OCCOCCN1CCN(C2=Nc3ccccc3Sc3ccccc32)CC1 [quetiapine]
efficacy in psychosis associated with PD [1]: has shown efficacy
patients with worsening of motor symptoms of PD [1]: up to 30%

solubility ([2]; ethanol, organic solvent or mixture): 88.5 mg/mL
solubility ([2]; phosphate buffer, aqueous buffer, pH 4.5 (phosphate)): 800 mg/mL
solubility ([2]; phosphate buffer, aqueous buffer, pH 6.8 (phosphate)): 800 mg/mL
solubility ([2]; phosphate buffer, aqueous buffer, pH 7.0 (phosphate)): ≥ 100 mg/mL
solubility ([2]; phosphate buffer, aqueous buffer, pH 7.1 (phosphate)): 51.3 mg/mL
solubility ([2]; phosphate buffer, aqueous buffer, pH 7.5 (phosphate)): 25.6 mg/mL
solubility ([2]; purified water, water): 800 mg/mL
solubility ([2]; simulated gastric fluid, pH 1.2 (0.1N HCl)): 700 mg/mL
Compound: CC1CCN(CCCC(=O)c2ccc(F)cc2)CC1.Cl [Melperone HCl, 1-(4-fluorophenyl)-4-(4-methyl-1-piperidinyl)-1-butanone hydrochloride]
pKa [3]: 9.1

Solubility in aqueous solutions ([2]; higher pH values (above pH=7.5)): poorly soluble
Solubility in aqueous solutions ([2]; pH range from about 1.2 up to about pH 6.8): freely soluble
Compound: CC1CCN(CCCC(=O)c2ccc(F)cc2)CC1 [melperone]
incidence of extrapyramidal side effect (EPS) or tardive dyskinesia [4]: low incidence
time over which efficacy was maintained ([5]; mean daily dose of 37.5 mg): 2 years
efficacy in the treatment of psychosis in patients with PD ([5]; proof-of-concept study): has shown efficacy
onset of efficacy ([5]; proof-of-concept study): rapid (within a week)
mean Tmax ([6]; oral tablet administration): 1.5 to 3.0 h
absolute oral bioavailability ([6]; oral, extensive first-pass metabolism): 50-70%
